# Reference: patent US12435379B2 (The University of Chicago, priority 2016, dated 2025)
# Experiments:
# [1] = test system: TMD8 cells transfected with BTK T316A; settings: 100 nM ibr 3 days, 10 μM BrdU 2 hrs
# Method: (§1) FIGS. 3A-C. […] (A) Growth of TMD8 cells transfected with BTK T316A, C481S, and WT BTK constructs. The transfected cells were cultured with either 100 nM ibr or DMSO. The live cell numbers were counted daily to 7 days. […] (B) Cell proliferation evaluated with the BrdU incorporation assay. Cells transfected with WT BTK and T316A were treated with 100 nM ibr for 3 days and were labeled with 10 μM BrdU for 2 hrs.
# (§2) BTK WT or mutant-transfected TMD8 cells were treated with ibr for 72 hrs at indicated doses. Cells were then exposed to 10 μM BrdU for 2 hrs followed by cell cycle analysis according to the manufacturer's instructions using BrdU Flow Kit (BD Pharmingen, San Diego, CA, USA). Flow cytometric analysis was performed using 4-laser BD LSR II using FACSDiva and FlowJo software.
# (§3) The functional impact of T316A mutation was assessed at the cellular levels. BTK wild type (WT) and T316A as well as C481S expression vectors were constructed and transfected into an ibr-sensitive lymphoma cell line (TMD8) and cell growth was followed.
# [2] = test system: TMD8 cells transfected with WT BTK; settings: 100 nM ibr 3 days, 10 μM BrdU 2 hrs
# Method: as §1, §2, §3
smiles,measurement,setting,value
"C=CC(=O)N1CCC[C@@H](n2nc(-c3ccc(Oc4ccccc4)cc3)c3c(N)ncnc32)C1 [Ibrutinib, ibrutinib]",BrdU incorporation (cellular proliferation) under ibr,[1],31.8%
same,BrdU incorporation (cellular proliferation) under ibr,[2],9.71%
